The inhibition in vivo is the share of the control response that was lost under treatment.

The structures appear in SMILES notation.

Among the data in ChEMBL document CHEMBL3046346, “Synthesis and analgesic, anti-inflammatory activities of 3-(3-methoxyphenyl)-2-substituted amino-quinazolin-4(3H)-ones” (Med Chem Res, 2011) are UI, Activity and inhibition in vivo values, retold here.

In data set [1] the test system is Rattus norvegicus. The data set is described as follows: Gastrointestinal toxicity in fasted Rattus norvegicus Wistar albino (rat) assessed as ulcer index at 20 mg/kg, ip measured after 4 hr. Set-up: dose 20 mg/kg, route intraperitoneal. It counts as organism-based. As to conditions: in vivo.
Data set [2] deals with Mus musculus. The experiment in a line: […] activity in Mus musculus Wistar albino (mouse) at 10 mg/kg, po after 30 min by tail-flick test. The data set is classed as functional. (In hot-plate and tail-flick tests a longer latency is read as antinociception.)
Data set [3] relates to Mus musculus. The experiment in a line: […] activity in Mus musculus Wistar albino (mouse) at 10 mg/kg, po after 1 hr by tail-flick test. The data set is classed as functional.
The subject of data set [4] is Rattus norvegicus. The experiment in a line: Anti-inflammatory activity in Rattus norvegicus (rat) assessed as inhibition of carrageenan-induced paw edema at 10 mg/kg, po measured at 30 min. The data set is classed as functional. Particulars: 0.5 h. (In general: The carrageenan paw model is a standard test of acute inflammation.)
Data set [5] relates to Rattus norvegicus. The experiment in a line: Anti-inflammatory activity in Rattus norvegicus (rat) assessed as inhibition of carrageenan-induced paw edema at 10 mg/kg, po measured at 3 hr. It counts as functional.
Data set [6] deals with Mus musculus. The data set is described as follows: […] activity in Mus musculus Wistar albino (mouse) at 10 mg/kg, po after 2 hr by tail-flick test. It counts as functional.
The test system of data set [7] is Rattus norvegicus. The experiment in a line: Anti-inflammatory activity in Rattus norvegicus (rat) assessed as inhibition of carrageenan-induced paw edema at 10 mg/kg, po measured at 2 hr. The data set is classed as functional.
The test system of data set [8] is Mus musculus. The experiment in a line: […] activity in Mus musculus Wistar albino (mouse) at 10 mg/kg, po after 3 hr by tail-flick test. It counts as functional.
For data set [9], the system named is Rattus norvegicus. The data set is described as follows: Anti-inflammatory activity in Rattus norvegicus (rat) assessed as inhibition of carrageenan-induced paw edema at 10 mg/kg, po measured at 1 hr. The data set is classed as functional.

For `CCC(CC)=NNc1nc2ccccc2c(=O)n1-c1cccc(OC)c1`, in data set [1], the UI is reported as 0.51. For the same molecule, the Activity in data set [2] is on record as 56%; in data set [3], 61%; in data set [6] it was 66%; in data set [8], 38%. The inhibition in vivo at 10 mg/kg in data set [4] turned out to be 45%; in [5], 34%; in data set [7], 53%; in data set [9], 48%.

Consider `CCC/C(C)=N/Nc1nc2ccccc2c(=O)n1-c1cccc(OC)c1`, for which the UI in data set [1] is listed as 0.58. For the same molecule, the Activity in [2] is reported as 57%; in data set [3] it was 64%; in [6], 68%; in [8], 41%. The inhibition in vivo at 10 mg/kg came to 42% in [4], 34% in data set [5], 49% in data set [7] and 47% in data set [9].

As for `COc1cccc(-n2c(NN=C3CCCCC3)nc3ccccc3c2=O)c1`, the UI in [1] was determined as 0.61. Further, the Activity in [2] is on record as 46%; in data set [3], 49%; in data set [6] it was 53%; in data set [8] it was 38%. In addition, the inhibition in vivo at 10 mg/kg in [4] turned out to be 37%; in data set [5], 31%; in data set [7] it was 43%; in data set [9] it was 40%.

As for `COc1cccc(-n2c(N/N=C(\C)c3ccccc3)nc3ccccc3c2=O)c1`, the UI in data set [1] was 0.62. In addition, the Activity in data set [2] turned out to be 44%; in data set [3], 46%; in [6], 51%; in [8] it was 36%. Moreover, the inhibition in vivo at 10 mg/kg is 39% in data set [4], 32% in data set [5], 45% in [7] and 42% in data set [9].

For the molecule `COc1cccc(-n2c(N/N=C3/C(=O)Nc4ccccc43)nc3ccccc3c2=O)c1`, the Activity in data set [2] was 39%; in [3] it was 43%; in data set [6] it was 46%; in data set [8], 36%. The inhibition in vivo at 10 mg/kg in [4] was found to be 35%; in data set [5] it was 31%; in [7], 40%; in data set [9] it was 37%.

As to `COc1cccc(-n2c(N/N=C\c3ccccc3)nc3ccccc3c2=O)c1`, the Activity in [2] came to 40%; in data set [3], 47%; in data set [6] it was 47%; in data set [8], 35%. Besides, the inhibition in vivo at 10 mg/kg in data set [4] is 35%; in data set [5] it was 31%; in data set [7], 47%; in data set [9] it was 38%.

For the molecule `COc1cccc(-n2c(N/N=C\c3ccccc3Cl)nc3ccccc3c2=O)c1`, the Activity in [2] came out at 32%; in data set [3] it was 39%; in data set [6], 42%; in [8], 33%. In addition, the inhibition in vivo at 10 mg/kg in data set [4] is 29%; in [5], 27%; in data set [7], 37%; in data set [9], 33%.

Regarding `COc1cccc(-n2c(N/N=C\c3ccc(Cl)cc3)nc3ccccc3c2=O)c1`, the Activity was 34% in [2], 40% in data set [3], 42% in data set [6] and 34% in data set [8]. The inhibition in vivo at 10 mg/kg in data set [4] was determined as 33%; in data set [5], 27%; in data set [7] it was 37%; in data set [9], 36%.

With `COc1cccc(-n2c(N/N=C\c3ccccc3[N+](=O)[O-])nc3ccccc3c2=O)c1`, the Activity was 35% in data set [2], 41% in data set [3], 45% in data set [6] and 36% in data set [8]. Besides, the inhibition in vivo at 10 mg/kg came out at 35% in data set [4], 27% in data set [5], 38% in data set [7] and 35% in data set [9].

`COc1cccc(-n2c(N/N=C\c3ccc([N+](=O)[O-])cc3)nc3ccccc3c2=O)c1`: the Activity in data set [2] came to 35%; in data set [3], 40%; in data set [6] it was 42%; in data set [8], 36%. The inhibition in vivo at 10 mg/kg in [4] worked out at 33%; in data set [5] it was 29%; in data set [7] it was 37%; in [9] it was 35%.

Consider `COc1ccc(/C=N\Nc2nc3ccccc3c(=O)n2-c2cccc(OC)c2)cc1`, for which the Activity stood at 30% in data set [2], 37% in data set [3], 41% in [6] and 30% in [8]. The inhibition in vivo at 10 mg/kg in [4] turned out to be 29%; in data set [5], 27%; in data set [7] it was 37%; in [9] it was 35%.

`COc1cccc(-n2c(N/N=C\c3ccccc3C)nc3ccccc3c2=O)c1`: the Activity was determined as 39% in [2], 45% in data set [3], 51% in [6] and 34% in data set [8]. In addition, the inhibition in vivo at 10 mg/kg in [4] was 36%; in data set [5], 30%; in [7], 42%; in [9] it was 41%.

`COc1cccc(-n2c(N/N=C\c3ccc(C)cc3)nc3ccccc3c2=O)c1`: the Activity was found to be 44% in data set [2], 48% in data set [3], 50% in data set [6] and 37% in data set [8]. Besides, the inhibition in vivo at 10 mg/kg in data set [4] was 32%; in data set [5], 28%; in data set [7], 40%; in [9], 35%.

In the case of `COc1cccc(-n2c(NN=C(c3ccccc3)c3ccccc3)nc3ccccc3c2=O)c1`, the Activity in [2] is recorded as 41%; in data set [3], 46%; in data set [6], 49%; in data set [8], 36%. Moreover, the inhibition in vivo at 10 mg/kg in data set [4] was found to be 33%; in [5], 30%; in data set [7], 41%; in data set [9], 38%.

For the molecule `CC/C(C)=N/Nc1nc2ccccc2c(=O)n1-c1cccc(OC)c1`, the UI in [1] is recorded as 0.53. For the same molecule, the Activity turned out to be 53% in [2], 58% in data set [3], 61% in data set [6] and 37% in [8]. Besides, the inhibition in vivo at 10 mg/kg was determined as 41% in data set [4], 32% in data set [5], 46% in [7] and 45% in data set [9].

Take `CC(=O)Oc1ccccc1C(=O)O` [ASPIRIN]: the UI in data set [1] came out at 1.73.

On to `O=C([O-])Cc1ccccc1Nc1c(Cl)cccc1Cl.[Na+]` [DICLOFENAC SODIUM], for which, in data set [1], the UI was 1.65. The Activity in data set [2] is 37%; in data set [3], 43%; in data set [6], 45%; in data set [8], 33%. Moreover, the inhibition in vivo at 10 mg/kg amounted to 32% in [4], 33% in [5], 39% in data set [7] and 38% in data set [9].
